Legend:
[1] = tested on: human intestinal fibroblasts; assay: SA-β-gal staining of irradiated (3×2 Gy) fibroblasts pre-conditioned with IL-1RA low organoid medium; format: cell-based; details: IL-1RA low conditioned medium, anakinra 20 μg/mL, 72 h
Text: (A and B) Quantification of IL-1 and IL-1RA baseline serum levels in non-pCR (n=25) and pCR (n=7) patients before CRT. Data are mean±SD. ** p<0.01 by t-test. (C) IL-1RA serum level association with two SNPs: rs4251961 (T/C) and rs579543 (A/G) using DNA isolated from patients (n=31) pre-CRT peripheral blood mononuclear cells. Data are mean±SD. ** p=0.0052 by t-test. (D) Kaplan-Meier DFS curve of patients with high (n=37) and low (n=37) IL-1RN expression score (median split) based on the RNA sequencing data of pre-CRT biopsies. * p<0.05 by Log-rank (Mantel-Cox) test. […] (H) Paired analysis of sirius red staining of non-pCR patients (n=11) pre versus post-CRT. Scale bars=300 μm. (I) Paired quantification of p21 immunohistochemistry staining of non-pCR patients (n=10) pre versus post CRT. (J) Correlation analysis of pre-CRT serum IL-1RA levels with ratio of p21 induction (post/pre-CRT p21 RNA expression level) (n=10 non pCR patients). * p<0.05 by Spearman r correlation test. […] (M) Nitrite concentration determined by Griess assay in supernatants from WT, IL-1RA high & IL-1RA low conditioned media treated human fibroblasts for 72 h (n=13 independent wells per group). […] (N) Nitrite concentration determined by Griess assay in supernatants from untreated and IL-1α (1 μg/mL) stimulated human fibroblasts for 72 h (n=32 independent wells per group representing 3 independent experiments). […]

[2] = tested on: colon fibroblasts; assay: Nitrite concentration by Griess assay in fibroblast supernatants; format: cell-based, mouse; details: recombinant IL-1α 1 μg/mL, 72 hours
Procedure: (A) Schematic illustration of APTKA organoids supernatant collection and treatment of colon fibroblasts from unchallenged wildtype C57BL/6 mice for 12 h followed by 3×2 Gy irradiation. Microscopic, proteomic & transcriptomic analysis were performed 72 h post first irradiation. (B) Microscopic captures of non-irradiated wildtype (WT) and APTKA conditioned fibroblasts. Remaining captures belong to irradiated fibroblasts: WT, IL-1α (1 μg/mL) stimulated WT, and APTKA conditioned media minus or plus anakinra (20 μg/mL) treated fibroblasts. Scale bars=200 μm. (C) Mass spectrometric analysis of matrisome profiles of 3×2 Gy irradiated (n=8) and non-irradiated (n=8) APTKA conditioned fibroblasts. […] (G) Immunoblot analysis of untreated and irradiated APTKA conditioned fibroblasts. Representative results from one experiment which has been independently repeated 2 times. (H) SA-ß gal staining of untreated and irradiated APTKA fibroblasts. Scale bars=100 μm. (I and J) p21 and pH2AX immunofluorescent staining of untreated and irradiated APTKA fibroblasts. Scale bars=[…]. Data are mean±SD. ** […] and *** p<0.001 by t-test. (K) Nitrite concentration determined by Griess assay in conditioned media from WT, APTK media, APTKA media, IL-1α (1 μg/mL) stimulated and APTKA plus anakinra (20 μg/mL) treated fibroblasts for 72 h (n=10 independent wells per group). […]

| Substance | senescence induction upon irradiation (SA-β-gal staining) [1] | nitrite levels in fibroblast supernatants [2] |
| --- | --- | --- |
| anakinra: Kineret®, an interleukin-1 receptor antagonist | could be blocked by anakinra | – |
| recombinant IL-1α: recombinant cytokine used to stimulate fibroblasts | – | significantly elevated |
